Where “and” joins values, the source holds several entries; their conditions need not be identical. Identical values can stand only once. Entries after “also recorded” stand apart in the source; their conditions may differ.
Assays:
PAS of EeAChE = biological target: T1, PAS of EeAChE (Electrophorus electricus, UniProt O42275); test: Propidium iodide displacement assay; format: binding; settings: five units EeAChE, 1 µM propidium iodide solution, triplicate
T1 construct: purchased Sigma-Aldrich
Protocol: By interacting with soluble β-amyloid peptides and facilitating their aggregation, the AChE peripheral anionic site (PAS) at the gorge’s edge contributes to AChE’s pro-aggregation capacity toward β-amyloid. […] The potential ability of compounds to bind PAS and thus block the pro-aggregation activity of AChE is possible to evaluate through competitive propidium displacement from the PAS of AChE.
The percentage inhibition was calculated by the following expression: 100 − (IFi/IF0 × 100), where IF1 and IF0 correspond to fluorescence intensities with and without the test compound, respectively. Each assay was carried out in triplicate independent experiments.

[1] = biological target: T2, acetylcholinesterase (AChE from Electrophorus electricus) (Electrophorus electricus, UniProt O42275); test: Ellman assay, AChE inhibitory activity; format: biochemical; settings: IC50 ± SEM, Ellman's assay
T2 construct: purchased Sigma-Aldrich
T2 sequence (O42275 24-633): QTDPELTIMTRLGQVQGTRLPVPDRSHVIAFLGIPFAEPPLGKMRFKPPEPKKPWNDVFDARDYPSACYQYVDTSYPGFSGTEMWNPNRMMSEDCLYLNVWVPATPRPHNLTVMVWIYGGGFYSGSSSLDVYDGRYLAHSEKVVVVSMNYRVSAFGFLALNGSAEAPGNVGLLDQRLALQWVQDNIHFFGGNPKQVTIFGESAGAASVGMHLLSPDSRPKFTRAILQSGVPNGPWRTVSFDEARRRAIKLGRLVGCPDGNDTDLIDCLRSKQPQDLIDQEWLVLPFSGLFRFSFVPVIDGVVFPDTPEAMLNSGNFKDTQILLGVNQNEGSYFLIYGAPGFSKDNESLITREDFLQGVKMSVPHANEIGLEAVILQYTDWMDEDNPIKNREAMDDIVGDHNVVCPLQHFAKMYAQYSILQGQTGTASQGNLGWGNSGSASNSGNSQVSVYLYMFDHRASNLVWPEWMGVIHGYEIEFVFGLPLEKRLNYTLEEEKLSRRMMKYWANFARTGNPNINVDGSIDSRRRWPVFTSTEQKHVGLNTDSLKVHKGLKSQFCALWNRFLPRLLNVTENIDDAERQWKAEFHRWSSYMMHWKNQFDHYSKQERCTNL
Protocol: The Ellman assay was used to test acetylcholinesterase (AChE from Electrophorus electricus) inhibition activity. A mixture of the DTNB (125 µL), enzyme solution (25 µL), and compound solution (25 µL) was prepared and incubated at room temperature for 20 min. All the assays were under 0.1 M KH2PO4/K2HPO4 buffer, pH 8.0. The substrate was added to start the enzymatic reaction. […] All measurements were performed fivefold as triplicate. The compounds were assayed in a dilution interval of 15 to 500 µg/mL.

[2] = biological target: T2, acetylcholinesterase (AChE from Electrophorus electricus); test: Kinetic characterization of AChE inhibition (Lineweaver–Burk); format: biochemical; settings: for Vmax: Lineweaver–Burk; for α: alpha calculated from Lineweaver–Burk plots; for type of inhibition: from Lineweaver–Burk plots and alpha
Protocol: To investigate the inhibition mechanism of the tested compounds on AChE, a kinetic analysis was performed. The experiments were carried out using a combination of four substrate concentrations and three inhibitor concentrations with the aim to obtain a double reciprocal plot (Lineweaver–Burk), in which each point is the mean of three different experiments. A parallel control with no inhibitor in the mixture allowed adjusted activities to be measured at various times.

T1 sequence (O42275 24-633): as above

C=C(C)[C@@H]1CC[C@]2(C(=O)O)CC[C@]3(C)[C@H](CC[C@@H]4[C@@]5(C)[C@@H](C(=O)O)[C@H](O)C(C)(C)[C@@H]5CC[C@]43C)[C@@H]12 [Compound 1, Ceanothic acid]
% Displacement of Propidium Iodide (Mean ± SEM) (PAS of EeAChE): 24.24 ± 0.32% | IC50 ([1]; pH 8.0, average of triplicate): 47.4 µM and 47 µM | IC50 ([1]; pH 8.0, triplicate): 47.4 µM

C=C(C)[C@@H]1CC[C@]2(C(=O)O)CC[C@]3(C)[C@H](CC[C@@H]4[C@@]5(C)[C@@H](C(=O)O)C(=O)C(C)(C)[C@@H]5CC[C@]43C)[C@@H]12 [Compound 2, 3-oxo-Ceanothic Acid]
% Displacement of Propidium Iodide (Mean ± SEM) (PAS of EeAChE): 28.71 ± 0.99% | IC50 ([1]; pH 8.0, average of triplicate): 5.28 µM and 5.3 µM | IC50 ([1]; pH 8.0, triplicate): 5.28 µM | Vmax [2]: 0.0032 | α [2]: 1.01 | type of inhibition [2]: noncompetitive inhibitors

C=C(C)[C@@H]1CC[C@]2(C(=O)OC)CC[C@]3(C)[C@H](CC[C@@H]4[C@@]5(C)[C@@H](C(=O)OC)[C@H](O)C(C)(C)[C@@H]5CC[C@]43C)[C@@H]12 [Compound 3, Ceanothic 2, 28-Dimethyl Ester]
% Displacement of Propidium Iodide (Mean ± SEM) (PAS of EeAChE): 27.01 ± 0.59% | IC50 ([1]; pH 8.0, average of triplicate): 14.4 µM and 14 µM | IC50 ([1]; pH 8.0, triplicate): 14.4 µM | Vmax [2]: 0.0133 | α [2]: 2.98 | type of inhibition [2]: mixed inhibitors

C=C(C)[C@@H]1CC[C@]2(C(=O)O)CC[C@]3(C)[C@H](CC[C@@H]4[C@@]5(C)[C@@H](C(=O)O)[C@H](OCCCCBr)C(C)(C)[C@@H]5CC[C@]43C)[C@@H]12 [Compound 6, 3-(4-Bromobutoxy)-ceanothic Acid]
% Displacement of Propidium Iodide (Mean ± SEM) (PAS of EeAChE): 31.51 ± 1.38% | IC50 ([1]; pH 8.0, average of triplicate): 8.4 µM and 8 µM | IC50 ([1]; pH 8.0, triplicate): 8.4 µM | Vmax [2]: 0.0086 | α [2]: 0.98 | type of inhibition [2]: noncompetitive inhibitors

C=C(C)[C@@H]1CC[C@]2(C(=O)O)CC[C@]3(C)[C@H](CC[C@@H]4[C@@]5(C)[C@@H](C(=O)O)[C@H](OC(=O)c6ccco6)C(C)(C)[C@@H]5CC[C@]43C)[C@@H]12 [Compound 7, 3-O-Furoyl-ceanothic Acid]
% Displacement of Propidium Iodide (Mean ± SEM) (PAS of EeAChE): 28.50 ± 2.55% | IC50 ([1]; pH 8.0, average of triplicate): 17.9 µM and 18 µM | IC50 ([1]; pH 8.0, triplicate): 17.9 µM | Vmax [2]: 0.0205 | α [2]: 10.39 | type of inhibition [2]: mixed inhibitors; also recorded: mixed-competitive-type inhibitor

From paper PMC11242892, “Ceanothanes Derivatives as Peripheric Anionic Site and Catalytic Active Site Inhibitors of Acetylcholinesterase: Insights for Future Drug Design” (International Journal of Molecular Sciences, 2024)
